Source: ChEMBL document CHEMBL5120945, “First-in-Class Allosteric Inhibitors of DNMT3A Disrupt Protein-Protein Interactions and Induce Acute Myeloid Leukemia Cell Differentiation” (J Med Chem, 2022)
The source made the active and inactive calls.

Assays:
[1] = target: Lysine-specific demethylase 5A (Homo sapiens) (UniProt P29375); assay: Inhibition of KDM5A (1 to 797) activity using 21-mer biotinylated H3K4me3 peptide measured after 40 mins by TR-FRET assay
[2] = target: T1, DNMT3A2/3L complex (Homo sapiens) (UniProt Q9Y6K1+Q9UJW3); assay: Inhibition of wild type full length recombinant human DNMT3A expressed in NiCo21(DE3) competent Escherichia coli cells to DNMT3L (unknown origin) protein-protein interaction
[3] = target: T1, DNMT3A2/3L complex (Homo sapiens); assay: […] of wild type full length recombinant human DNMT3A expressed in NiCo21(DE3) competent Escherichia coli cells to DNMT3L protein-protein interaction
[4] = species on record: Homo sapiens; assay: Inhibition of wild type full length recombinant human DNMT3A expressed in NiCo21(DE3) competent Escherichia coli cells to human TDG protein protein interaction using FAM/TGGATATCTAGGGGCGCTATGATAT as substrate incubated for 5 mins by microplate reader based fluorescence anisotropy assay; details: DDE = dose-dependent effect
[5] = species on record: Homo sapiens; assay: Inhibition of full length recombinant human DNMT3A R882H mutant expressed in NiCo21(DE3) competent Escherichia coli cells to human p53
[6] = species on record: Homo sapiens; assay: Inhibition of full length recombinant human DNMT3A R882H mutant expressed in NiCo21(DE3) competent Escherichia coli cells to human TDG
[7] = species on record: Homo sapiens; assay: Inhibition of wild type full length recombinant human DNMT3A expressed in NiCo21(DE3) competent Escherichia coli cells to human p53 protein-protein interaction using FAM/TGGATATCTAGGGGCGCTATGATAT as substrate incubated for 5 mins by microplate reader based fluorescence anisotropy assay; details: DDE = dose-dependent effect
[8] = species on record: Homo sapiens; assay: Inhibition of full length recombinant human DNMT3A R882H mutant expressed in NiCo21(DE3) competent Escherichia coli cells
[9] = target: DNA (cytosine-5)-methyltransferase 3A (Homo sapiens) (UniProt Q9Y6K1); assay: Inhibition of wild type full length recombinant human DNMT3A expressed in NiCo21(DE3) competent Escherichia coli cells assessed as decrease the fluorescence anisotrophy of DNA bound protein using FAM/TGGATATCTAGGGGCGCTATGATAT as substrate incubated for 5 mins by microplate reader based fluorescence anisotropy assay
[10] = target: DNA (cytosine-5)-methyltransferase 3A (Homo sapiens) (UniProt Q9Y6K1); assay: Inhibition of H3 peptide activated human full length DNMT3A expressed in NiCo21(DE3) competent Escherichia coli cells at 60 uM
[11] = species on record: Homo sapiens; assay: Inhibition of full length recombinant human DNMT3A R882H mutant expressed in NiCo21(DE3) competent Escherichia coli cells to DNMT3L (unknown origin) using FAM-DNA as substrate
[12] = species on record: Homo sapiens; assay: Inhibition of full length recombinant human DNMT3A R882H mutant expressed in NiCo21(DE3) competent Escherichia coli cells to DNMT3L (unknown origin) protein-protein interaction
[13] = species on record: Homo sapiens; assay: Inhibition of full length recombinant human DNMT3A R729 mutant tetramer expressed in NiCo21(DE3) competent Escherichia coli cells
[14] = test system: MV4-11; assay: Induction of myeloid differentiation in human MV4-11 cells assessed as increase in CD11b level measured after 72 hrs by propidium iodide staining based flow cytometry; type: functional, cell-based; details: dose 5-10 µM, DDE = dose-dependent effect
[15] = test system: OCI-AML-3; assay: Induction of DNA methylation in human OCI-AML-3 cells at 5 uM by ELISA; type: functional, cell-based; details: time 3.0 day, TDE = time-dependent effect
[16] = test system: K562; assay: Induction of apoptosis in human K562 cells measured after 72 hrs by annexinV staining based flow cytometry; type: functional, cell-based; details: dose 7-12 µM, DDE = dose-dependent effect
[17] = target: T1, DNMT3A2/3L complex (Homo sapiens); assay: Inhibition of DNMT3L-mediated wild type full length recombinant human DNMT3A homo tetramer expressed in NiCo21(DE3) competent Escherichia coli cells to DNMT3L protein-protein interaction assessed as DNA methylation using poly dl-dC as substrate incubated for 1 hr
[18] = test system: OCI-AML-3; assay: Induction of myeloid differentiation in human OCI-AML-3 cells assessed as increase in CD11b level measured after 72 hrs by propidium iodide staining based flow cytometry; type: functional, cell-based; details: dose 5-10 µM, DDE = dose-dependent effect
[19] = target: T1, DNMT3A2/3L complex (Homo sapiens); assay: Inhibition of DNMT3L-mediated wild type full length recombinant human DNMT3A hetero tetramer expressed in NiCo21(DE3) competent Escherichia coli cells to DNMT3L protein-protein interaction assessed as DNA methylation using poly dl-dC as substrate incubated for 1 hr
[20] = species on record: Homo sapiens; assay: Inhibition of full length recombinant human DNMT3A E733 mutant tetramer expressed in NiCo21(DE3) competent Escherichia coli cells
[21] = test system: THP-1; assay: Induction of myeloid differentiation in human THP-1 cells assessed as increase in CD11b level measured after 72 hrs by propidium iodide staining based flow cytometry; type: functional, cell-based; details: dose 5-10 µM, DDE = dose-dependent effect
[22] = species on record: Homo sapiens; assay: Inhibition of full length recombinant human DNMT3A R729A mutant tetramer expressed in NiCo21(DE3) competent Escherichia coli cells to DNMT3L (unknown origin) protein-protein interaction preincubated for 1 hr
[23] = test system: MV4-11; assay: Induction of apoptosis in human MV4-11 cells measured after 72 hrs by annexinVstaining based flow cytometry; type: functional, cell-based; details: dose 7-12 µM, DDE = dose-dependent effect
[24] = test system: OCI-AML-3; assay: Induction of apoptosis in human OCI-AML-3 cells measured after 72 hrs by annexinV staining based flow cytometry; type: functional, cell-based; details: dose 7-12 µM, DDE = dose-dependent effect
[25] = test system: Kasumi 1; assay: Induction of apoptosis in human Kasumi 1 cells measured after 72 hrs by annexinV staining based flow cytometry; type: functional, cell-based; details: dose 7-12 µM, DDE = dose-dependent effect
[26] = test system: HL-60; assay: Induction of myeloid differentiation in human HL-60 cells assessed as increase in CD11b level measured after 72 hrs by propidium iodide staining based flow cytometry; type: functional, cell-based; details: DDE = dose-dependent effect
[27] = test system: MOLM-13; assay: Induction of myeloid differentiation in human MOLM-13 cells assessed as increase in CD11b level measured after 72 hrs by propidium iodide staining based flow cytometry; type: functional, cell-based; details: dose 5-10 µM, DDE = dose-dependent effect
[28] = species on record: Homo sapiens; assay: Inhibition of full length recombinant human DNMT3A E733A mutant tetramer expressed in NiCo21(DE3) competent Escherichia coli cells to DNMT3L (unknown origin) protein-protein interaction preincubated for 1 hr
[29] = test system: THP-1; assay: Induction of apoptosis in human THP-1 cells measured after 72 hrs by annexinV staining based flow cytometry; type: functional, cell-based; details: dose 7-12 µM, DDE = dose-dependent effect
[30] = test system: K562; assay: Induction of myeloid differentiation in human K562 cells assessed as increase in CD11b level measured after 72 hrs by propidium iodide staining based flow cytometry; type: functional, cell-based; details: DDE = dose-dependent effect
[31] = species on record: Homo sapiens; assay: Inhibition of full length recombinant human DNMT3A R771A mutant expressed in NiCo21(DE3) competent Escherichia coli cells to DNMT3L (unknown origin) protein-protein interaction using FAM-DNA as substrate by fluorescence anisotropy assay
[32] = test system: Kasumi 1; assay: Induction of myeloid differentiation in human Kasumi 1 cells assessed as increase in CD11b level measured after 72 hrs by propidium iodide staining based flow cytometry; type: functional, cell-based; details: DDE = dose-dependent effect
[33] = test system: HL-60; assay: Induction of DNA methylation in human HL-60 cells at 5 uM by ELISA; type: functional, cell-based; details: time 3.0 day, TDE = time-dependent effect
[34] = species on record: Homo sapiens; assay: Inhibition of full length recombinant human DNMT3A R736A mutant tetramer expressed in NiCo21(DE3) competent Escherichia coli cells to DNMT3L (unknown origin) protein-protein interaction preincubated for 1 hr
[35] = test system: MOLM-13; assay: Induction of apoptosis in human MOLM-13 cells measured after 72 hrs by annexinV staining based flow cytometry; type: functional, cell-based; details: dose 7-12 µM, DDE = dose-dependent effect
[36] = test system: HL-60; assay: Induction of apoptosis in human HL-60 cells measured after 72 hrs by annexinVstaining based flow cytometry; type: functional, cell-based; details: dose 7-12 µM, DDE = dose-dependent effect
[37] = test system: K562; assay: Induction of DNA methylation in human K562 cells at 5 uM by ELISA; type: functional, cell-based; details: time 3.0 day, TDE = time-dependent effect
[38] = species on record: Homo sapiens; assay: Inhibition of full length recombinant human DNMT3A R771A mutant tetramer expressed in NiCo21(DE3) competent Escherichia coli cells to DNMT3L (unknown origin) protein-protein interaction preincubated for 1 hr
[39] = species on record: Homo sapiens; assay: Inhibition of full length recombinant human DNMT3A R736 mutant tetramer expressed in NiCo21(DE3) competent Escherichia coli cells

T1 sequence (Q9UJW3 whole entry, looked up): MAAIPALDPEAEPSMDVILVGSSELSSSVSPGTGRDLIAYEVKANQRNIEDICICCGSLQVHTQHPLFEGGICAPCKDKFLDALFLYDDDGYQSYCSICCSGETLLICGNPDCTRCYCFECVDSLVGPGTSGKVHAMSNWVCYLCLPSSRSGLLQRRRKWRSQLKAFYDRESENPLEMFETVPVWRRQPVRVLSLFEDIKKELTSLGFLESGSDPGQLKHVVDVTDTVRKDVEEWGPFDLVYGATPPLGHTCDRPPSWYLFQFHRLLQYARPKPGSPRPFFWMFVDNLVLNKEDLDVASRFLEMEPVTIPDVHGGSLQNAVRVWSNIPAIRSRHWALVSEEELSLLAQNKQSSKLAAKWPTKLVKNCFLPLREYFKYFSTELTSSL
T1 sequence (Q9Y6K1 whole entry, looked up): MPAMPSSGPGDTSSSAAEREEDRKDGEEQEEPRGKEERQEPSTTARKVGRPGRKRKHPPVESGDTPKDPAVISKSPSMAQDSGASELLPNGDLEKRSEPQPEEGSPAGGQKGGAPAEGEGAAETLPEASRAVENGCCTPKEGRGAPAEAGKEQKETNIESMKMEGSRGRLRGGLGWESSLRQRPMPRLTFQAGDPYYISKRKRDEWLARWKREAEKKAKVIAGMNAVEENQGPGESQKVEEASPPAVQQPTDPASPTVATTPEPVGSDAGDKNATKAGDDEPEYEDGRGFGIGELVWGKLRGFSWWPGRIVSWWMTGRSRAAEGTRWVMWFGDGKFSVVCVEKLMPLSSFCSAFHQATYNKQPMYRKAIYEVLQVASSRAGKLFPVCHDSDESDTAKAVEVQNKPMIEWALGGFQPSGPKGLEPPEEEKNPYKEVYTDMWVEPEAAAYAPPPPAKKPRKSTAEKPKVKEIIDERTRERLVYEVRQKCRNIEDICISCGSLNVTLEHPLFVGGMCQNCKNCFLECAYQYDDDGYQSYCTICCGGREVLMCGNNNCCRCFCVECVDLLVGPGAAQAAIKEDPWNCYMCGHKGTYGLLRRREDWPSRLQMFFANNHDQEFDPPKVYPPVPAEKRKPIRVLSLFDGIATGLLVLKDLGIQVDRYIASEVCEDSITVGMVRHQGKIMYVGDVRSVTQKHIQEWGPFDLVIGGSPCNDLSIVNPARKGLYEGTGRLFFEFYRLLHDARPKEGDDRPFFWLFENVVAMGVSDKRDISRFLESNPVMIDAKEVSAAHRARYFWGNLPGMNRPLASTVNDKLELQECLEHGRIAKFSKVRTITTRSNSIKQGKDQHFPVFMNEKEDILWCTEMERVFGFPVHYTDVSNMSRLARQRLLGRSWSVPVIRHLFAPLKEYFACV
Chain of DNA (cytosine-5)-methyltransferase 3A (Homo sapiens) (Q9Y6K1 whole entry, looked up): as above
Chain of Lysine-specific demethylase 5A (Homo sapiens) (P29375 whole entry): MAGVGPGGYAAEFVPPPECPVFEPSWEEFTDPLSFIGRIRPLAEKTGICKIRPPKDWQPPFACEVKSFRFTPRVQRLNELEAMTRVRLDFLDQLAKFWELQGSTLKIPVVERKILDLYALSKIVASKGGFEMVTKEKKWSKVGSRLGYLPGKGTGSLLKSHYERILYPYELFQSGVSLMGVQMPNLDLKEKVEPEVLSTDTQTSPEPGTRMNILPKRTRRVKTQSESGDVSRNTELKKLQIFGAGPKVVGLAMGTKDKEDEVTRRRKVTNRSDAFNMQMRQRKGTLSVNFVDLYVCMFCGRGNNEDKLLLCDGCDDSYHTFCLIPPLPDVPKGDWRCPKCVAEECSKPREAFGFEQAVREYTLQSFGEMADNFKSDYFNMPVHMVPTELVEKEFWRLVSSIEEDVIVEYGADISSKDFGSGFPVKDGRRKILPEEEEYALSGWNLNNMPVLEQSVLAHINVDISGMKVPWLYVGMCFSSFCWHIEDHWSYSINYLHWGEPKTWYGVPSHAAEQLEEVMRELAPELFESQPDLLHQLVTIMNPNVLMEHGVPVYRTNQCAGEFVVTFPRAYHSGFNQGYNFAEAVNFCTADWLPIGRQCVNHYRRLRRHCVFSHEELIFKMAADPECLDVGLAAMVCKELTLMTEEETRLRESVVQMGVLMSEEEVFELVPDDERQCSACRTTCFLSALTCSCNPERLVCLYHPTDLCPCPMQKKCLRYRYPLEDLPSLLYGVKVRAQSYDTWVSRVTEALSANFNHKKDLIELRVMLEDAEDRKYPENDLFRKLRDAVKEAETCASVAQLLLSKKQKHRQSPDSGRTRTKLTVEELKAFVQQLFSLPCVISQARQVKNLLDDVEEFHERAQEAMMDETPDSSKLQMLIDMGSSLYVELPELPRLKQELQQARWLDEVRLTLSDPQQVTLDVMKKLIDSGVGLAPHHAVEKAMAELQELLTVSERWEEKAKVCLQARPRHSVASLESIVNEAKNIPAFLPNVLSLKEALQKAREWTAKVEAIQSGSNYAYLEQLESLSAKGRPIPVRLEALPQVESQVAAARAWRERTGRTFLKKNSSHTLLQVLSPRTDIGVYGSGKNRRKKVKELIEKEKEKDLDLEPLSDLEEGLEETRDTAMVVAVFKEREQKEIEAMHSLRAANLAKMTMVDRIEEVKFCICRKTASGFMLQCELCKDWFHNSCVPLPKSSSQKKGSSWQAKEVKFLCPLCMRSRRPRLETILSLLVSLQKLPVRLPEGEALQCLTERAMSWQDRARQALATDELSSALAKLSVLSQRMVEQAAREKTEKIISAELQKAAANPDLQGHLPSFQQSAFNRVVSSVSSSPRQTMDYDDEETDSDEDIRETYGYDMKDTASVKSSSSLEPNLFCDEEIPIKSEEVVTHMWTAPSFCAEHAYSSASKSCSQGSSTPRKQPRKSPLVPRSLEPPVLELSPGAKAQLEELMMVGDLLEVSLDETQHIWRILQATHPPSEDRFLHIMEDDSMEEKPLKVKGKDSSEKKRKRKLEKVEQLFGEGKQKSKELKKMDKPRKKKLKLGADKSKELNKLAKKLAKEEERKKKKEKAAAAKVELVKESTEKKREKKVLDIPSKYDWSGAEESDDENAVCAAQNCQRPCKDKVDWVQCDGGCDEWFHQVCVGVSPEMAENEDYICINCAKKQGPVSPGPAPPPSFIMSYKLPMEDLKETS

COc1ccc(C2=NN(C3CCCCCC3)C(=O)C2(C)C)cc1OCCCCOc1ccc(-c2nn[nH]n2)cc1
active: inhibition [1] | inhibition [2] | Activity [3] | inhibition [4] Dde | inhibition [5] | inhibition [6] | inhibition [7] Dde | inhibition [8] | inhibition [9] | inhibition [10] | inhibition [11] | inhibition [12]

COc1ccc(C2=NN(C3CCCCCC3)C(=O)[C@@H]3CC=CC[C@H]23)cc1OCCCCOc1ccc(-c2nnn[nH]2)cc1
active: inhibition [13] | Activity [14] Dde | inhibition [1] | Activity [15] Tde | inhibition [2] | Activity [16] Dde | inhibition [17] | Activity [3] | Activity [18] Dde | inhibition [4] Dde | inhibition [19] | inhibition [5] | inhibition [20] | Activity [21] Dde | inhibition [6] | inhibition [22] | Activity [23] Dde | Activity [24] Dde | Activity [25] Dde | inhibition [7] Dde | Activity [26] Dde | Activity [27] Dde | inhibition [28] | Activity [29] Dde | Activity [30] Dde | inhibition [31] | Activity [32] Dde | inhibition [8] | Activity [33] Tde | inhibition [34] | Activity [35] Dde | Activity [36] Dde | inhibition [9] | Activity [37] Tde | inhibition [38] | inhibition [39] | inhibition [10] | inhibition [11] | inhibition [12]
